From PubChem BioAssay (NCI)
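Step 1: Grow cells in 96-well plates. Step 2: Expose to compound for 48 hours at 5 concentrations. Step 3: Interpolate endpoints linearly; if unreached, use highest concentration. Here, GI50 denotes the concentration required for 50% inhibition of growth. TGI: concentration producing complete growth inhibition.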

What was measured:
Experiment in all cases: NCI anticancer screen, dose series, 48 h
OVCAR-5 ovarian = system: OVCAR-5 ovarian
SNB-19 CNS = system: SNB-19 CNS
SK-MEL-5 melanoma = system: SK-MEL-5 melanoma
OVCAR-4 ovarian = system: OVCAR-4 ovarian
COLO 205 colon = system: COLO 205 colon
SNB-75 CNS = system: SNB-75 CNS
KM12 colon = system: KM12 colon
NCI-H522 lung = system: NCI-H522 lung
HOP-62 NSCLC = system: HOP-62 NSCLC
NCI-H226 lung = system: NCI-H226 lung
HCC-2998 colon = system: HCC-2998 colon
HL-60(TB) leukemia = system: HL-60(TB) leukemia
A498 renal = system: A498 renal
HCT-15 colon = system: HCT-15 colon
MCF7 breast = system: MCF7 breast
SF-295 CNS = system: SF-295 CNS
IGROV1 ovarian = system: IGROV1 ovarian
A549 NSCLC = system: A549 NSCLC
PC-3 prostate = system: PC-3 prostate
OVCAR-3 ovarian = system: OVCAR-3 ovarian
RXF 393 renal = system: RXF 393 renal
TK-10 renal = system: TK-10 renal
K-562 leukemia = system: K-562 leukemia
OVCAR-8 ovarian = system: OVCAR-8 ovarian
SW-620 colon = system: SW-620 colon
UO-31 renal = system: UO-31 renal
UACC-257 melanoma = system: UACC-257 melanoma
SF-268 CNS = system: SF-268 CNS
EKVX NSCLC = system: EKVX NSCLC
CCRF-CEM leukemia = system: CCRF-CEM leukemia
MDA-MB-231 breast = system: MDA-MB-231 breast
LOX IMVI melanoma = system: LOX IMVI melanoma
M14 melanoma = system: M14 melanoma
RPMI-8226 leukemia = system: RPMI-8226 leukemia
NCI-H460 lung = system: NCI-H460 lung
CAKI-1 renal = system: CAKI-1 renal
SR leukemia = system: SR leukemia
SK-MEL-2 melanoma = system: SK-MEL-2 melanoma
NCI/ADR-RES ovarian = system: NCI/ADR-RES ovarian
SF-539 CNS = system: SF-539 CNS
HS 578T breast = system: HS 578T breast
ACHN renal = system: ACHN renal
BT-549 breast = system: BT-549 breast
SK-OV-3 ovarian = system: SK-OV-3 ovarian
UACC-62 melanoma = system: UACC-62 melanoma
SN12C renal = system: SN12C renal
MOLT-4 leukemia = system: MOLT-4 leukemia
HOP-92 NSCLC = system: HOP-92 NSCLC
HCT-116 colon = system: HCT-116 colon
U251 CNS = system: U251 CNS
SK-MEL-28 melanoma = system: SK-MEL-28 melanoma
MALME-3M melanoma = system: MALME-3M melanoma
NCI-H23 lung = system: NCI-H23 lung
786-0 renal = system: 786-0 renal
HT29 colon = system: HT29 colon
DU-145 prostate = system: DU-145 prostate
MDA-MB-435 = system: MDA-MB-435
T-47D breast = system: T-47D breast

CCN1C(=O)N(CC)C2C1NN=c1s/c(=C\c3cccnc3)c(=O)n12 (stereo not drawn)
GI50 (OVCAR-5 ovarian): 1970 nM | TGI (OVCAR-5 ovarian): > 100000 nM | GI50 (SNB-19 CNS): 676 nM | TGI (SNB-19 CNS): > 100000 nM | GI50 (SK-MEL-5 melanoma): 344 nM | TGI (SK-MEL-5 melanoma): 12600 nM | GI50 (OVCAR-4 ovarian): 5720 nM | TGI (OVCAR-4 ovarian): > 100000 nM | GI50 (COLO 205 colon): 392 nM | TGI (COLO 205 colon): > 53300 nM | GI50 (SNB-75 CNS): 116 nM | GI50 (KM12 colon): 464 nM | TGI (KM12 colon): > 100000 nM | GI50 (NCI-H522 lung): 474 nM | TGI (NCI-H522 lung): > 100000 nM | GI50 (HOP-62 NSCLC): 628 nM | TGI (HOP-62 NSCLC): > 100000 nM | GI50 (NCI-H226 lung): 1100 nM | TGI (NCI-H226 lung): > 100000 nM | GI50 (HCC-2998 colon): 1290 nM | TGI (HCC-2998 colon): > 100000 nM | GI50 (HL-60(TB) leukemia): 395 nM | GI50 (A498 renal): 224 nM | TGI (A498 renal): 1010 nM | GI50 (HCT-15 colon): 414 nM | TGI (HCT-15 colon): > 100000 nM | GI50 (MCF7 breast): 333 nM | TGI (MCF7 breast): > 100000 nM | GI50 (SF-295 CNS): 353 nM | TGI (SF-295 CNS): > 100000 nM | GI50 (IGROV1 ovarian): 843 nM | TGI (IGROV1 ovarian): > 100000 nM | GI50 (A549 NSCLC): 733 nM | TGI (A549 NSCLC): > 100000 nM | GI50 (PC-3 prostate): 451 nM | TGI (PC-3 prostate): > 100000 nM | GI50 (OVCAR-3 ovarian): 359 nM | TGI (OVCAR-3 ovarian): 8530 nM | GI50 (RXF 393 renal): 271 nM | TGI (RXF 393 renal): 3350 nM | GI50 (TK-10 renal): > 100000 nM | TGI (TK-10 renal): > 100000 nM | GI50 (K-562 leukemia): 300 nM | TGI (K-562 leukemia): > 100000 nM | GI50 (OVCAR-8 ovarian): 823 nM | TGI (OVCAR-8 ovarian): > 100000 nM | GI50 (SW-620 colon): 393 nM | TGI (SW-620 colon): > 100000 nM | GI50 (UO-31 renal): 1530 nM | TGI (UO-31 renal): > 100000 nM | GI50 (UACC-257 melanoma): > 100000 nM | TGI (UACC-257 melanoma): > 100000 nM | GI50 (SF-268 CNS): 21800 nM | TGI (SF-268 CNS): > 100000 nM | GI50 (EKVX NSCLC): 659 nM | TGI (EKVX NSCLC): > 100000 nM | GI50 (CCRF-CEM leukemia): 410 nM | TGI (CCRF-CEM leukemia): > 100000 nM | GI50 (MDA-MB-231 breast): 3570 nM | TGI (MDA-MB-231 breast): > 95300 nM | GI50 (LOX IMVI melanoma): 543 nM | TGI (LOX IMVI melanoma): > 100000 nM | GI50 (M14 melanoma): 298 nM | TGI (M14 melanoma): > 100000 nM | GI50 (RPMI-8226 leukemia): 410 nM | TGI (RPMI-8226 leukemia): > 100000 nM | GI50 (NCI-H460 lung): 400 nM | TGI (NCI-H460 lung): > 100000 nM | GI50 (CAKI-1 renal): 346 nM | TGI (CAKI-1 renal): > 100000 nM | GI50 (SR leukemia): 132 nM | TGI (SR leukemia): > 100000 nM | GI50 (SK-MEL-2 melanoma): > 100000 nM | TGI (SK-MEL-2 melanoma): > 100000 nM | GI50 (NCI/ADR-RES ovarian): 380 nM | TGI (NCI/ADR-RES ovarian): > 100000 nM | GI50 (SF-539 CNS): 319 nM | TGI (SF-539 CNS): 2510 nM | GI50 (HS 578T breast): 440 nM | TGI (HS 578T breast): > 100000 nM | GI50 (ACHN renal): 694 nM | TGI (ACHN renal): > 100000 nM | GI50 (BT-549 breast): 1040 nM | TGI (BT-549 breast): 19900 nM | GI50 (SK-OV-3 ovarian): 2020 nM | TGI (SK-OV-3 ovarian): > 100000 nM | GI50 (UACC-62 melanoma): 417 nM | TGI (UACC-62 melanoma): > 100000 nM | GI50 (SN12C renal): 616 nM | TGI (SN12C renal): > 100000 nM | GI50 (MOLT-4 leukemia): 596 nM | TGI (MOLT-4 leukemia): > 100000 nM | TGI (HOP-92 NSCLC): > 100000 nM | GI50 (HCT-116 colon): 478 nM | TGI (HCT-116 colon): > 100000 nM | GI50 (U251 CNS): 612 nM | TGI (U251 CNS): > 100000 nM | GI50 (SK-MEL-28 melanoma): 957 nM | TGI (SK-MEL-28 melanoma): > 100000 nM | GI50 (MALME-3M melanoma): 599 nM | TGI (MALME-3M melanoma): > 100000 nM | GI50 (NCI-H23 lung): 689 nM | TGI (NCI-H23 lung): > 100000 nM | GI50 (786-0 renal): 695 nM | TGI (786-0 renal): > 100000 nM | GI50 (HT29 colon): 386 nM | TGI (HT29 colon): > 100000 nM | GI50 (DU-145 prostate): 412 nM | TGI (DU-145 prostate): > 48700 nM | GI50 (MDA-MB-435): 154 nM | TGI (MDA-MB-435): 527 nM

COc1ccc2c(CCCC(c3ccccc3)c3ccccc3)c3[n+](cc2c1OC)CCc1cc2c(cc1-3)OCO2
GI50 (SK-MEL-5 melanoma): 149 nM | TGI (SK-MEL-5 melanoma): 284 nM | GI50 (A498 renal): 96.9 nM | TGI (A498 renal): 996 nM | GI50 (TK-10 renal): 324 nM | TGI (TK-10 renal): 1290 nM | GI50 (K-562 leukemia): 318 nM | TGI (K-562 leukemia): 1740 nM | GI50 (SW-620 colon): 323 nM | TGI (SW-620 colon): 1390 nM | GI50 (CCRF-CEM leukemia): 453 nM | TGI (CCRF-CEM leukemia): 2560 nM | GI50 (CAKI-1 renal): 2270 nM | TGI (CAKI-1 renal): 6510 nM | GI50 (SK-MEL-2 melanoma): 271 nM | TGI (SK-MEL-2 melanoma): 1110 nM | GI50 (NCI/ADR-RES ovarian): 4830 nM | TGI (NCI/ADR-RES ovarian): 38900 nM | GI50 (HS 578T breast): 370 nM | TGI (HS 578T breast): 2100 nM | GI50 (SK-OV-3 ovarian): 303 nM | TGI (SK-OV-3 ovarian): 1050 nM | GI50 (UACC-62 melanoma): 243 nM | TGI (UACC-62 melanoma): 1060 nM | GI50 (MOLT-4 leukemia): 376 nM | TGI (MOLT-4 leukemia): 2070 nM | GI50 (HT29 colon): 219 nM | TGI (HT29 colon): 1170 nM | GI50 (DU-145 prostate): 470 nM | TGI (DU-145 prostate): 1720 nM | GI50 (MDA-MB-435): 293 nM | TGI (MDA-MB-435): 1150 nM

Nc1nc(Cl)cc(OCC2(O)CC(COC(=O)c3ccccc3)C2)n1 (stereo not drawn)
GI50 (SNB-19 CNS): 34100 nM | GI50 (SK-MEL-5 melanoma): 37300 nM | GI50 (OVCAR-4 ovarian): 38200 nM | GI50 (COLO 205 colon): 46600 nM | GI50 (SNB-75 CNS): 53000 nM | GI50 (KM12 colon): 30600 nM | GI50 (NCI-H226 lung): 81000 nM | GI50 (HL-60(TB) leukemia): 58400 nM | GI50 (MCF7 breast): 47700 nM | GI50 (SF-295 CNS): 78500 nM | GI50 (A549 NSCLC): 67800 nM | GI50 (OVCAR-3 ovarian): 82200 nM | GI50 (K-562 leukemia): 40300 nM | GI50 (OVCAR-8 ovarian): 71000 nM | GI50 (UO-31 renal): 91500 nM | GI50 (EKVX NSCLC): 13200 nM | GI50 (CCRF-CEM leukemia): 47900 nM | GI50 (MDA-MB-231 breast): 48100 nM | GI50 (LOX IMVI melanoma): 76100 nM | GI50 (RPMI-8226 leukemia): 85500 nM | GI50 (SR leukemia): 32100 nM | GI50 (NCI/ADR-RES ovarian): 39500 nM | GI50 (HS 578T breast): 46600 nM | GI50 (MOLT-4 leukemia): 26900 nM | TGI (MOLT-4 leukemia): 83700 nM | GI50 (HCT-116 colon): 82900 nM | GI50 (U251 CNS): 76100 nM | GI50 (NCI-H23 lung): 51800 nM | GI50 (HT29 colon): 70000 nM | GI50 (T-47D breast): 30700 nM
